Experimental data taken from patent publication US8623995B2, “Peptide conjugates and fluorescence detection methods for intracellular caspase assay” (Applied Biosystems, LLC, priority 2001, dated 2014).
The star is where a group is joined. Cbz = O=C(OCc1ccccc1)*; CH2F = FC*

Experiments:
NT-2 cells = assay: Intracellular caspase assay on FMAT 8100 HTS System with peptide conjugate 9: apoptosis induction; assay type: cell-based, Human
Protocol: (§1) One method for introducing the peptide conjugates into cells to induce apoptosis and measure caspase activity includes the following steps: • 1. Plate the eukaryotic cells in RPMI 1640 media in the wells of a tissue culture-treated 96-well plate at 37° C. The cells will adhere to well bottoms in 1 to 24 hours. Any number of different sample cells or any combination of cells, inhibitors or apoptosis inducers can be assayed. Typically 10,000 cells per well are plated in about 100 μl of tissue culture media. • 2. Add an apoptosis inducer, e.g. camptothecin or staurosporine, dissolved in media and/or solvent. Different concentrations can be used to study dose-response. • 3. Let the cells stand for about 24 hours at 37° C., depending on the inducer. • 4. Add the peptide conjugate, dissolved in media and/or solvent in a range of 1 to 10 μM, e.g. 2.5 μM, to every well, including controls. Let stand for about 90 minutes at 37° C. • 5. Transfer plates to a fluorescent plate reading device, cell sorter, flow cytometer, laser imager, microscope, or other device and read the content of the wells.
(§2) A data spreadsheet assigns numerical values of fluorescence intensity and peak heights. The greyscale image has intensity content, like an autoradiogram. […] The cells are simply counted by a cell counting algorithm as either blue or red depending on the ratio of channel 2 to channel 1 fluorescence intensity, and independent of intensity values. The fraction of apoptotic cells is determined by identifying the apoptotic population in each well and dividing by the total number of cells detected. The ratio of red (channel 2) to blue (channel 1) inversely correlates to the apoptotic fraction. In other words:
[formula] […] Effects of introducing apoptosis inducers and caspase inhibitors to different cells under variable conditions can thus be measured by the mix-and-read protocols on the FMAT 8100 System. A dose response is determined when this fraction (% apoptotic) is plotted as a function of the concentration of camptothecin in the well (FIG. 11), and other apoptosis inducers (FIGS. 12 and 13). […]

HeLa cells = assay: Intracellular caspase assay with peptide conjugate 9: apoptosis induction; assay type: cell-based, Human; conditions: peptide conjugate 9 (FIG. 13)
Protocol: as §1, with “Plate the eukaryotic cells in RPMI 1640 media in the wells of a tissue culture-treated 96-well plate at 37° C.” left out, “Add the peptide conjugate, dissolved in media and/or solvent in a range of 1 to 10 μM, e.g. 2.5 μM, to every well, including controls.” left out
as §2, with “The ratio of red (channel 2) to blue (channel 1) inversely correlates to the apoptotic fraction. In other words:” left out

Jurkat cells = assay: as above; assay type: cell-based, Human; conditions: peptide conjugate 9 (FIG. 13)
Protocol: as §1, with “Plate the eukaryotic cells in RPMI 1640 media in the wells of a tissue culture-treated 96-well plate at 37° C.” left out, “Add the peptide conjugate, dissolved in media and/or solvent in a range of 1 to 10 μM, e.g. 2.5 μM, to every well, including controls.” left out
as §2, with “The ratio of red (channel 2) to blue (channel 1) inversely correlates to the apoptotic fraction. In other words:” left out

caspase = target: T1, caspase (Homo sapiens, UniProt P42574); assay: Intracellular caspase assay on FMAT 8100: caspase inhibitors on cleavage of peptide conjugate 9 in NT-2 cells; assay type: cell-based; conditions: inhibitor at 50 μM, NT-2 cells with CMP to induce apoptosis (FIG. 10)
T1 construct: endogenous in cells; host or cells: NT-2 cells
T1 sequence (P42574 29-175 limits assumed): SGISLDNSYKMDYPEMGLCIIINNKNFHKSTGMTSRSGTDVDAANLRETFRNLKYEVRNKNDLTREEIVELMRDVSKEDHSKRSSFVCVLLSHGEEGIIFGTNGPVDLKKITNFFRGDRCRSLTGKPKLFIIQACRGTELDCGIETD
T1 sequence (P42574 176-277 limits assumed): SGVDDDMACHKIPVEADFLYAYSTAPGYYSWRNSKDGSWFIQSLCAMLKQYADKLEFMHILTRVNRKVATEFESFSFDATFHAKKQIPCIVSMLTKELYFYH
Protocol: as §1, with “Plate the eukaryotic cells in RPMI 1640 media in the wells of a tissue culture-treated 96-well plate at 37° C.” left out, “Add the peptide conjugate, dissolved in media and/or solvent in a range of 1 to 10 μM, e.g. 2.5 μM, to every well, including controls.” left out
The plate was incubated at 37° C. for 90 minutes.

For CC[C@@]1(O)C(=O)OCc2c1cc1n(c2=O)Cc2cc3ccccc3nc2-1 [camptothecin], the “Induction of apoptosis / caspase activity (donor dye emission, channel 1)” value (NT-2 cells; 500 nM, peptide conjugate 9 (FIG. 9)) was “caspase activity is evident” and the “Dose response: fraction of apoptotic cells” value (NT-2 cells; 0.0001 to 10 μM, 24 hours, peptide conjugate 9 (FIG. 11)) was “fraction of apoptotic cells correlates with camptothecin concentration”.
In the case of CN[C@@H]1C[C@H]2O[C@@](C)([C@@H]1OC)n1c3ccccc3c3c4c(c5c6ccccc6n2c5c31)C(=O)NC4 [staurosporine], the “Threshold concentration above which fraction of apoptotic cells correlates with concentration” value (HeLa cells) is reported as about 0.5 µM and the “Threshold concentration above which fraction of apoptotic cells correlates with concentration” value (Jurkat cells) is reported as “about 0.05 μM”.
With Cbz-Val-Ala-Asp-CH2F the “Suppression of cleavage of peptide conjugate 9” value (caspase) was “complete suppression”.
COc1cccc2c1C(=O)c1c(O)c3c(c(O)c1C2=O)C[C@@](O)(C(=O)CO)C[C@@H]3O[C@H]1C[C@H](N)[C@H](O)[C@H](C)O1 [doxirubicin] was tested, and the “Concentration above which most of the cells were detected as apoptotic” value (NT-2 cells; peptide conjugate 9 (FIG. 12)) was “about 0.1 μM”.
